Laboratory results published in US6346260B1, “Microbicidal active ingredients” (Ciba Specialty Chemicals Corporation, priority 1999, dated 2002).
In brackets after ≈: the same amount, converted by molar mass.

Columns and labels:
Assay type in all cases: cell-based
[1] = test system: Pseudomonas aeruginosa CIP A-22; test: MIC in microtitre plates, Pseudomonas aeruginosa; settings: CIPA22; Table 2; Pseudomonas aeruginosa CIP-A 22; 48 hours at 37° C.; ≦20% growth; read-out: MIC PA
Method: (§1) Determination of Antimicrobial Activity in Accordance with the Microtitre Plate Method Determination of the Minimum Inhibitory Concentration (MIC value) in Microtitre Plates casein-soybean flour-peptone bouillon for the preparation of the precultures of the test bacteria and yeast. Pseudomonas aeruginosa CIP A-22 The test substances are predissolved in dimethyl sulfoxide (DMSO) and tested in a dilution series of 1:2. Bacteria and yeast are cultured overnight in CASO bouillon, the mould on mycological slant agar and rinsed off with 10 ml of 0.85% sodium chloride solution (+0.1% TritonX-100). All test organisms are adjusted to an organism count of 1-5*10^6 CFU/ml with 0.85% sodium chloride solution. The test substances are prepipetted into microtitre plates in an amount of 8 μl per well. Previously diluted test organism suspensions are diluted 1:100 in CASO bouillon (bacteria and yeast) and Sabouraud 2% glucose bouillon (mould) and added to the test substances in an amount of 192 μl per well. The test batches are incubated for 48 hours at 37° C. (bacteria and yeast) or for 5 days at 28° C. (mould). After incubation, the growth is determined by reference to the turbidity of the test batches (optical density) at 620 nm in a microplate reader. The minimum inhibitory concentration (MIC value) is the concentration of substance at which (compared with the growth of the control) an appreciable inhibition of the growth (≦20% growth) of the test organisms is ascertained. One microtitre plate is used for each test organism and substance concentration. All substances are tested in duplicate.

[2] = test system: Aspergillus niger ATCC 6275; test: MIC in microtitre plates, Aspergillus niger; settings: ATCC6275, 120 h; Table 2; Aspergillus niger ATCC 6275; 5 days at 28° C.; ≦20% growth; read-out: MIC AN
Method: as §1, with “Mycological slant agar” for “casein-soybean flour-peptone bouillon”, “preculture” for “preparation”, “moulds. Aspergillus niger ATCC 6275” for “the precultures of the test bacteria and yeast. Pseudomonas aeruginosa CIP A-22”

[3] = test system: Escherichia coli NCTC 8196; test: MIC in microtitre plates, Escherichia coli; settings: NCTC8196; Table 2; Escherichia coli NCTC 8196; 48 hours at 37° C.; ≦20% growth; read-out: MIC EC
Method: as §1, with “Escherichia coli NCTC 8196” for “Pseudomonas aeruginosa CIP A-22”

[4] = test system: Candida albicans ATCC 10231; test: MIC in microtitre plates, Candida albicans; settings: ATCC10231; Table 2; Candida albicans ATCC 10231; 48 hours at 37° C.; ≦20% growth; read-out: MIC CA
Method: as §1, with “Candida albicans ATCC 10231” for “Pseudomonas aeruginosa CIP A-22”

[5] = test system: Staphylococcus hominis DSM 20368; test: MIC in microtitre plates, Staphylococcus hominis; settings: DSM20368, Table 2, 48 hours at 37° C., ≦20% growth
Method: as §1, with “Staphylococcus hominis DSM 20328” for “Pseudomonas aeruginosa CIP A-22”

| MIC [1] [µg/mL] | MIC [2] [µg/mL] | MIC [3] [µg/mL] | MIC [4] [µg/mL] | MIC [5] [µg/mL] | Structure (SMILES) |
| --- | --- | --- | --- | --- | --- |
| > 120 | > 120 | > 120 | > 120 | > 120 | Cc1ccccc1C(=O)CC(=O)c1ccc(O)cc1 [(106)] |
| > 120 | > 120 | > 120 | > 120 | > 120 | O=C(CC(=O)c1ccc(O)cc1)c1ccccc1 [(111)] |
| > 120 | > 120 | > 120 | > 120 | > 120 | Cc1ccc(O)c(C(=O)CC(=O)c2ccccc2)c1 [(112)] |
| > 120 | > 120 | > 120 | > 120 | > 120 | Cc1cc(O)c(C(=O)CC(=O)c2ccccc2)cc1Cl [(113)] |
| > 120 | > 120 | > 120 | > 120 | > 120 | O=C(CC(=O)c1cc(Br)ccc1O)c1ccccc1 [(114)] |
| > 120 | > 120 | > 120 | > 120 | > 120 | O=C(CC(=O)c1ccccc1O)c1ccccc1 [(115)] |

Further lines, the compound ahead of its results:

| Structure (SMILES) | MIC [1] [µg/mL] | MIC [2] [µg/mL] | MIC [3] [µg/mL] | MIC [4] [µg/mL] | MIC [5] [µg/mL] |
| --- | --- | --- | --- | --- | --- |
| O=C(CC(=O)c1cccs1)c1ccc(O)cc1 [(103)] | > 120 | > 120 | > 120 | > 120 | > 120 |
| COc1ccccc1C(=O)CC(=O)c1ccc(O)cc1 [(105)] | > 120 | > 120 | > 120 | > 120 | > 120 |
| COc1ccc(C(=O)CC(=O)c2ccc(O)cc2)cc1OC [(107)] | > 120 | 120 (≈ 400 µM) | 120 (≈ 400 µM) | > 120 | > 120 |
| COc1cc(C(=O)CC(=O)c2ccc(O)cc2)cc(OC)c1OC [(108)] | > 120 | > 120 | > 120 | > 120 | > 120 |
| COC(=O)c1cccc(C(=O)CC(=O)c2ccc(O)cc2)c1 [(109)] | > 120 | > 120 | > 120 | > 120 | > 120 |
| O=C(CC(=O)c1cccc(C(F)(F)F)c1)c1ccc(O)cc1 [(110)] | > 120 | 60 (≈ 195 µM) | 60 (≈ 195 µM) | > 120 | > 120 |
